Tests used:
[1] = molecular target: 11-beta-hydroxysteroid dehydrogenase 1 (Mus musculus, UniProt P50172); assay: Inhibition of recombinant mouse 11beta-HSD1 expressed in HEK293 cell microsomes using [3H]cortisone as substrate after 4 hrs by homogeneous immuno-radiometric scintillation proximity assay
[2] = molecular target: T1, Nuclear receptor subfamily 1 group I member 2 (Homo sapiens, UniProt O75469); assay: Activation of PXR (unknown origin); type: ADME
T1 sequence (O75469 whole entry): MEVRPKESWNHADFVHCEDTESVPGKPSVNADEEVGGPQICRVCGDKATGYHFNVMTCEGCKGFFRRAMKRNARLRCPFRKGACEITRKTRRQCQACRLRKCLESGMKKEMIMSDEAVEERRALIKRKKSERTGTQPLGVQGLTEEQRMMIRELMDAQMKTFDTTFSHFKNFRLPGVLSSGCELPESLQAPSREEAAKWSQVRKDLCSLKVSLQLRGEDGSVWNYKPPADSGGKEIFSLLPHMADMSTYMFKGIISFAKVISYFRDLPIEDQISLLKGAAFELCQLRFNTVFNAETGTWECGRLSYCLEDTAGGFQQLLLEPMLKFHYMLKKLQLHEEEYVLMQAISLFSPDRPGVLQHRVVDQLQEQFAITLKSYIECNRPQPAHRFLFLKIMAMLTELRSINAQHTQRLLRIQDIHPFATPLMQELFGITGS

Sequence of 11-beta-hydroxysteroid dehydrogenase 1 (P50172 whole entry): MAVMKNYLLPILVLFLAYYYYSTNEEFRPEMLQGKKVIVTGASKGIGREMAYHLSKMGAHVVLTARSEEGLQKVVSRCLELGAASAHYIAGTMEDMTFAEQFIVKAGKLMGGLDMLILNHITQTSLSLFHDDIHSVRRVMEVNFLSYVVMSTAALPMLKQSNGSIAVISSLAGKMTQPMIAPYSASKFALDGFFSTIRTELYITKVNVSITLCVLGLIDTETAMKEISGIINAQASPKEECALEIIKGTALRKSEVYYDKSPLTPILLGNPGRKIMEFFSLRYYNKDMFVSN

Row | IC50 [1] [µM] | EC50 [2] [µM] | Compound
1 | 3.8 | 25 | OCc1cccn2c(C3(c4ccc(Cl)cc4)CC3)nnc12
2 | > 10 | 3.6 | CC(C)(O)CCc1cccn2c(C3(c4ccc(Cl)cc4)CC3)nnc12

Reference: ChEMBL document CHEMBL4325920, “Discovery of Clinical Candidate BMS-823778 as an Inhibitor of Human 11β-Hydroxysteroid Dehydrogenase Type 1 (11β-HSD-1)” (ACS Med Chem Lett, 2018)
